Assay [1] addresses T1, Or83b receptor (Drosophila melanogaster, UniProt Q9VNB5).
T1 construct: His (from vector pAc5.1/V5-His B) (C); expressed in transfected cells
T1 sequence (Q9VNB5 1-486): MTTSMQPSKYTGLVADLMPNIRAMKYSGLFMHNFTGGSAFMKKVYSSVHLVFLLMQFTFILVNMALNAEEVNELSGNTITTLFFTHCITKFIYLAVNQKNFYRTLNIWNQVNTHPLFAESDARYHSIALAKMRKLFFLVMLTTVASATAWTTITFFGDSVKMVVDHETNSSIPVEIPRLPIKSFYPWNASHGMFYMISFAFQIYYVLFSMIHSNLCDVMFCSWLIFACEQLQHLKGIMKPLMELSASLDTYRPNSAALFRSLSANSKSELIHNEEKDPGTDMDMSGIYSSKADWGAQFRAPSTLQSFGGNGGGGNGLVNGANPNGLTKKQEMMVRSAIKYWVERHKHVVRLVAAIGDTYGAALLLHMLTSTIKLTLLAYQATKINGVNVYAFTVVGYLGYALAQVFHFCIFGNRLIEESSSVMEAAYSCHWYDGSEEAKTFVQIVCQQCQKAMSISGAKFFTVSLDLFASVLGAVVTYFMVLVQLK
Nature of the assay: Saturation binding of ^3H-tyramine to membranes from Schneider cells expressing Or83b receptor. How it is done:
To address whether Or83b receptor and Or43a receptor contain a specific binding site for tyramine, membranes expressing Or83b receptor or Or43a receptor are prepared from cells expressing either receptor, as described above, and used for competitive binding with ^3H-tyramine. The binding assay protocol is exactly as described for cells expressing TyrR, as described above.

Assay [2] addresses T2, tyramine receptor (TyrR) (Drosophila melanogaster, UniProt P22270).
T2 sequence (P22270 27-601): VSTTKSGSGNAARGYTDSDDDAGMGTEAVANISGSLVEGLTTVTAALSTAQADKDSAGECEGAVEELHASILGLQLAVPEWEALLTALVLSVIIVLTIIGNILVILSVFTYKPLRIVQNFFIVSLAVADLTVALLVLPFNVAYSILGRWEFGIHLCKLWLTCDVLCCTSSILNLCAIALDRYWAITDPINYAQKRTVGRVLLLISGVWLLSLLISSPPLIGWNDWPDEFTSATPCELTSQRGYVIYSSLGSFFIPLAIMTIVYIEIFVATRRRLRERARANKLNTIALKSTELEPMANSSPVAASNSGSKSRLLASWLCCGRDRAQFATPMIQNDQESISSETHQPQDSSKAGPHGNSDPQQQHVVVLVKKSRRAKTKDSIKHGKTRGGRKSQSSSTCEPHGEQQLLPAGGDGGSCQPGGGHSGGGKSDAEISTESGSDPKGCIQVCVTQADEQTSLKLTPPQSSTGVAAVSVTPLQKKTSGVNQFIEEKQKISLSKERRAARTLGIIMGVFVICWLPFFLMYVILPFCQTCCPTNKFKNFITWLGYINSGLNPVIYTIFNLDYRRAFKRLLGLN
Kind of assay: Saturation binding of ^3H-tyramine to membranes from Schneider cells expressing tyramine receptor.
Protocol: A preliminary study to determine the optimum concentration of membrane protein for receptor binding activity is performed. […] After about 1 hr incubation at room temperature, reactions are terminated by filtration through GF/C filters (VWR), which have been previously soaked in about 0.3% polyethyleneimine (PEI). The filters are washed one time with about 4 ml ice cold Iris buffer and air dried before the retained radioactivity is measured using LSC. Binding data is analyzed by curve fitting (GraphPad software, Prism).
Receptor binding reactions are incubated for about 1 hr at room temperature (RT) in restricted light. Reactions are terminated by filtration through OF/C filters (VWR), which have been previously soaked in about 0.3% polyethyleneimine (PEI). The filters are washed one time with about 4 ml ice cold Tris buffer and air dried before retained radioactivity is measured using LSC. Binding data is analyzed by curve fitting (GraphPad software, Prism).

The target in assay [3] is T3, Or43a receptor (Drosophila melanogaster, UniProt P81917, L154V).
T3 construct: His (from vector pAc5.1/V5-His B) (C); expressed in transfected cells
Nature of the assay: cAMP production in Schneider cells expressing Or43a receptor. The class given is cell-based. How it is done:
Cells are grown on dishes and the media changed the day before the treatment. […] About 20 mL of insect saline is added, and cells are harvested by gentle scraping. An aliquot of the cells is counted by hemocytometer, and the cells are then centrifuged for about 5 minutes at about 1000 RPM. Cells are resuspended to give about 3×10^6 cells per mL. IBMX is added to about 200 μM. Then about 1 mL of cell suspension is aliquoted for treatment. Forskolin (cAMP inducing agent), tyramine or different composition candidates are added, and the cells are incubated at about 27° C. for about 10 minutes.
Treated cells are centrifuged at about 13000 g for about 10 seconds. The solution is aspirated and about 1 mL of about −20° C. 70% ethanol is added. The cell pellet is disrupted by vortexing and the samples placed at about −20° C. overnight. Following the ethanol extraction, cellular debris is pelleted by centrifugation at about 13000 g for about 5 minutes. The supernatant is transferred to a tube and lyophilized to dryness in a rotary speed-vac. The resulting extract is resuspended in about 100 μL TE and used for the cAMP assay.
The cAMP assay is based on competition binding between endogenous cAMP and ^3H-cAMP to a cAMP binding protein. The ^3H-cAMP Biotrak system (Amersham Biosciences) is used for this assay as per the manufacturer's instructions. Briefly, about 50 μL of the cellular extract is incubated with about 50 μL ^3H-cAMP and about 100 μL cAMP binding protein in an ice bath for about 2-4 hours. Charcoal (about 100 μL) is then added and the solution centrifuged for about 3 minutes at about 4° C. About 200 μL of the reaction mixture is removed and levels of ^3H-cAMP are determined by scintillation counting.
As such, the cells expressing olfactory receptors have a functionally active cAMP cascade.

The Kd is the equilibrium constant for the complex coming apart. Higher therefore signals lower affinity. One may read the Ki as a measure of affinity in units of concentration, obtained from inhibition or displacement. High values mean a looser hold on the target, low ones a stronger hold on the target.

T3 sequence (P81917 whole entry L154V): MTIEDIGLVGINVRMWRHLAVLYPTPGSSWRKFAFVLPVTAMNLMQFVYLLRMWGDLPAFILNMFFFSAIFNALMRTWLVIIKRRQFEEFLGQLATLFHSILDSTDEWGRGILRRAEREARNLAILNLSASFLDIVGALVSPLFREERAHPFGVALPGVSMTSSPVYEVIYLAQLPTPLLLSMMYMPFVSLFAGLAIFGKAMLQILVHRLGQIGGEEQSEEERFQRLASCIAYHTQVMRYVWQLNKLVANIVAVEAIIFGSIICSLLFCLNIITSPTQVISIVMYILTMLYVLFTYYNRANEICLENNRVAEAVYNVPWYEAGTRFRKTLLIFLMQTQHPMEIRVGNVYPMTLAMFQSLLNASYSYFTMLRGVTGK

With `NCCc1ccc(O)cc1` [tyramine], in assay [1], the Kd was around 96.9 nM and the inhibitory constant (Ki) stood at 96.9 nM. The same compound yielded an inhibition constant (Ki) in assay [2] of 1.26 nM. The compound further displayed a Bmax in assay [2] (saturation binding, membranes expressing TyrR, listed as Tyramine) of 0.679 pmol/mg protein. Besides, the “change in cAMP levels” value in assay [3] (agent alone, tyramine about 20 μM, LFO, BSO about 50 μg/ml, forskolin about 10 μM) is listed as “increase in cAMP levels”. In addition, in assay [3] (plus forskolin about 10 μM), the “change in cAMP levels, with forskolin” value is “increase in cAMP levels”.

These data come from patent US20080075796A1, “Compositions and Methods for Controlling Insects” (TyraTech, Inc., priority 2003, published 2008).
